Experimental data from patent publication US8609847B2, “Dihydroquinolinone derivatives” (Taisho Pharmaceutical Co., Ltd, priority 2009, dated 2013).

Target: T1, human H3 receptor (Homo sapiens, UniProt Q9Y5N1)
T1 construct: purchased Perkin Elmer ES-392-M400UA; host or cells: CHO-K1 cells (recombinant expression), membrane preparation
Assay: H3 Receptor Binding Test
Conditions: 50% inhibition of R(−)-α-methyl[3H]histamine (1 nM) binding; membrane preparation of human H3 receptor-expressing CHO-K1 cells
Procedure: A membrane preparation of human H3 receptor-expressing CHO-K1 cells (Perkin Elmer, ES-392-M400UA, 15 μg protein/200 μl), R(−)-α-methyl[^3H]histamine (Amersham, TRK-1017, specific activity: 1.74 TBq/mmol, 1 nM) and a test drug were reacted at room temperature for 1 hour. After completion of the reaction, the reaction mixture was subjected to suction filtration through a 0.3% polyethyleneimine-treated glass filter (GF/C). The glass filter was washed five times with 50 mM Tris-HCl washing solution (pH 7.4) containing 5 mM EDTA. After washing, the glass filter was dried and a scintillator was added thereto, followed by measurement of radioactivity on the filter using a liquid scintillation counter.
Binding of R(−)-α-methyl[^3H]histamine in the presence of 10 μM R(−)-α-methylhistamine was defined as non-specific binding, and the difference between total binding and non-specific binding of R(−)-α-methyl[^3H]histamine was defined as specific binding of R(−)-α-methyl[^3H]histamine. A fixed concentration (1 nM) of R(−)-α-methyl[^3H]histamine was reacted under the above conditions with each test drug at various concentrations to obtain an inhibition curve. The inhibition curve was used to determine the concentration (IC50) of each test drug required for 50% inhibition of R(−)-α-methyl[^3H]histamine binding.

T1 sequence (Q9Y5N1 whole entry): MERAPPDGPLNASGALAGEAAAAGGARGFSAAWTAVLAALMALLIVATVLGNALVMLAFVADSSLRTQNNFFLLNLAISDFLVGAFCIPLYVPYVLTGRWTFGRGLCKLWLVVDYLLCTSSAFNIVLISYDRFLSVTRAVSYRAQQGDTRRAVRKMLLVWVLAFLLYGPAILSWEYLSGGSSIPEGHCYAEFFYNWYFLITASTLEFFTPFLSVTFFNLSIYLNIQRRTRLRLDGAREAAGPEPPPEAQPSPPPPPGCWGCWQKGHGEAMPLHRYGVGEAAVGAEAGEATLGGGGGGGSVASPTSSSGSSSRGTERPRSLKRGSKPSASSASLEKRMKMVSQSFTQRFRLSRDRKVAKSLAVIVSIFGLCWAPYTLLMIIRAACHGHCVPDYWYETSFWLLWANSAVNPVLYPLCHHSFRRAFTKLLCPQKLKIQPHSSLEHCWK

IC50 [nM] | SMILES
11 | C[C@@H]1CCCN1CCCOc1cc(Cl)c2c(c1)CCC(=O)N2c1ccc(F)cc1 [Compound No. 85, 8-chloro-1-(4-fluorophenyl)-6-{3-[(2R)-2-methylpyrrolidin-1-yl]propoxy}-3,4-dihydroquinolin-2(1H)-one]
11 | C[C@@H]1CCCN1CCCOc1ccc2c(c1)CCC(=O)N2c1ccc(C(=O)C2CC2)cc1 [Compound No. 16, 1-[4-(cyclopropylcarbonyl)phenyl]-6-{3-[(2R)-2-methylpyrrolidin-1-yl]propoxy}-3,4-dihydroquinolin-2(1H)-one]
1.2 | C[C@@H]1CCCN1CCCOc1ccc2c(c1)CCC(=O)N2c1cncc(F)c1 [Compound No. 52, 1-(5-fluoropyridin-3-yl)-6-{3-[(2R)-2-methylpyrrolidin-1-yl]propoxy}-3,4-dihydroquinolin-2(1H)-one]
2.4 | COc1cc(F)cc(N2C(=O)CCc3cc(OCCCN4CCC[C@H]4C)ccc32)c1 [Compound No. 26, 1-(3-fluoro-5-methoxyphenyl)-6-{3-[(2R)-2-methylpyrrolidin-1-yl]propoxy}-3,4-dihydroquinolin-2(1H)-one]
2.9 | COCc1ccc(N2C(=O)CCc3cc(OCCCN4CCC[C@H]4C)ccc32)cc1 [Compound No. 11, 1-[4-(methoxymethyl)phenyl]-6-{3-[(2R)-2-methylpyrrolidin-1-yl]propoxy}-3,4-dihydroquinolin-2(1H)-one]
41 | C[C@@H]1CCCN1CCCOc1ccc2c(c1)CCC(=O)N2c1ccc(N2CCOCC2)cc1 [Compound No. 17, 6-{3-[(2R)-2-methylpyrrolidin-1-yl]propoxy}-1-[4-(morpholin-4-yl)phenyl]-3,4-dihydroquinolin-2(1H)-one]
4 | C[C@@H]1CCCN1CCCOc1ccc2c(c1)CCC(=O)N2c1ccc(-c2cnco2)cc1 [Compound No. 19, 6-{3-[(2R)-2-methylpyrrolidin-1-yl]propoxy}-1-[4-(1,3-oxazol-5-yl)phenyl]-3,4-dihydroquinolin-2(1H)-one]
3.9 | CCOc1ccc(N2C(=O)CCc3cc(OCCCN4CCC[C@H]4C)ccc32)cc1 [Compound No. 5, 1-(4-ethoxyphenyl)-6-{3-[(2R)-2-methylpyrrolidin-1-yl]propoxy}-3,4-dihydroquinolin-2(1H)-one]
1.1 | C[C@@H]1CCCN1CCCOc1ccc2c(c1)CCC(=O)N2c1ccc(Cl)cc1F [Compound No. 30, 1-(4-chloro-2-fluorophenyl)-6-{3-[(2R)-2-methylpyrrolidin-1-yl]propoxy}-3,4-dihydroquinolin-2(1H)-one]

More lines, now with the values behind:

SMILES | IC50 [nM]
O=C1CCc2cc(OC3CCN(C4CCC4)CC3)ccc2N1c1ccc(Cl)cc1 [Compound No. 70, 1-(4-chlorophenyl)-6-[(1-cyclobutylpiperidin-4-yl)oxy]-3,4-dihydroquinolin-2(1H)-one] | 0.75
C[C@@H]1CC[C@@H](C)N1CCCOc1ccc2c(c1)CCC(=O)N2c1ccc(F)cc1 [Compound No. 84, 6-{3-[(2R,5R)-2,5-dimethylpyrrolidin-1-yl]propoxy}-1-(4-fluorophenyl)-3,4-dihydroquinolin-2(1H)-one] | 5
O=C1CCc2cc(OC3CCN(C4CC4)CC3)ccc2N1c1ccc(F)cc1 [Compound No. 77, 6-[(1-cyclopropylpiperidin-4-yl)oxy]-1-(4-fluorophenyl)-3,4-dihydroquinolin-2(1H)-one] | 2.1
CC(C)(C)N1CCC(Oc2ccc3c(c2)CCC(=O)N3c2ccc(F)cc2)CC1 [Compound No. 66, 6-[(1-tert-butylpiperidin-4-yl)oxy]-1-(4-fluorophenyl)-3,4-dihydroquinolin-2(1H)-one] | 3.7
O=C1CCc2cc(OC3CCN(C4CCC4)CC3)ccc2N1c1cc(F)cc(F)c1 [Compound No. 68, 6-[(1-cyclobutylpiperidin-4-yl)oxy]-1-(3,5-difluorophenyl)-3,4-dihydroquinolin-2(1H)-one] | 0.72
O=C1CCc2cc(OCCCN3CCCC3)ccc2N1c1cc(F)cc(F)c1 [Compound No. 80, 1-(3,5-difluorophenyl)-6-[3-(pyrrolidin-1-yl)propoxy]-3,4-dihydroquinolin-2(1H)-one] | 22
